Measurements from patent publication US10849988B2, “Hydrogel for engineered immune response to D-chirality peptides” (THE REGENTS OF THE UNIVERSITY OF CALIFORNIA, priority 2016, dated 2020).
Where no end group is shown, it is not given here. [ ]: non-standard residue; d: D form.

System: macrophages
Assay: In vitro macrophage assay, mRNA production of key markers of inflammation
Format: cell-based
Excerpt: FIGS. 6A-6I show data from comparative studies on D and L peptides. […] Note: in 1:1 L/D samples the L gels are unlabeled. FIG. 6B) Quantification of CD11b positive cells (immune cells) within and around gel within a healed dermal wound bed at Day 21 (ex. FIG. 6A). FIG. 6C) Comparing cell recruitment into subcutaneously-injected gels as a function of adaptive immune competence (Balb/c) versus adaptive immune incompetence (Rag2gc−/−). FIG. 6D) Fraction of immune cell to total cell recruitment within a subcutaneously injected gels as a function of adaptive immune competence (Balb/c) versus adaptive immune incompetence (Rag2gc−/−). FIGS. 6E-I) mRNA production of key markers of inflammation within an in vitro macrophage assay upon exposure to DI water, Lipid Polysaccharide (LPS) 500 ug/mL, D-MMP crosslinker 500 ug/mL, and LPS+D-MMP.

Gly Cys Arg Asp Gly Pro d-Gln Gly d-Ile d-Trp Gly Gln Asp Arg Cys Gly (GCRDGP[dQ]G[dI][dW]GQDRCG; cysteine pairing not given here) [D-MMP]
effect on macrophages (mRNA of key markers of inflammation) relative to the positive control (LPS) (D-MMP crosslinker 500 ug/mL alone): no direct effect | effect on macrophages (mRNA of key markers of inflammation) when combined with the positive control (LPS) (LPS+D-MMP, each 500 ug/mL): some additive affects
